Patent US6583177B2, “Leukotriene B4 antagonist compounds and method for treatment” (Ono Pharmaceutical Co., Ltd., priority 1994, dated 2003)

Biological target: T1, LTB4 receptor (Homo sapiens, UniProt Q15722)
T1 construct: The reaction was started by addition of a thoroughly mixed PMN cell suspension (1.6×10^6 cells); endogenous in cells; host or cells: human polymorphonuclear leukocytes (PMN), whole-cell suspension
Assay: Binding inhibition against 3H-LTB4 on the human polymorphonuclear leukocyte (PMN)
Conditions: percentage of inhibition of specific 3H-LTB4 (4nM) binding to human PMN, 0° C. for 20 min
Experimental: Binding Inhibition Against ^3H-LTB4 on the Human Polymorphonuclear Leukocyte (PMN)
0.049 ml Hanks balanced salt solution (HBSS), 0.001 ml test compound and 0.05 ml ^3H-LTB4 (4nM) were added to polypropylene tubes and mixed. The reaction was started by addition of a thoroughly mixed PMN cell suspension (1.6×10^6 cells), followed by incubation at 0° C. for 20 min. The reaction was terminated by the addition of ice-cold HBSS (2.5 ml). PMNs were harvested by vacuum filtration through Whatman GF/C glass fiber filters on a Brandel cell harvester (BRANDEL, M-24R). The filters were then washed 2 times to remove free ^3H-LTB4 with 2.5 ml of the ice-cold PBS (−) solution. The filters were transferred to each vial, and equilibrated after adding 8 ml ACS II cocktail (Amersham). The radioactivity was measured by liquid scintillation counter (Aloka, LSC-5100).
Specific binding of ^3H-LTB4 to the LTB4 receptor was defined as total binding minus nonspecific binding. Nonspecific binding was the amount of ^3H-LTB4 binding in the presence of 1.5 μM LTB4 instead of the test compound. The inhibitory effect of test compound was calculated from the following equation.
The percentage of inhibition (%)=100−(B1/B0×100)
B1: Specific ^3H-LTB4 binding in presence of test compound
B0: Specific ^3H-LTB4 binding in absence of test compound
The compounds of the formula (IB), of the present invention have an antagonistic activity on LTB4. The results which are measured by method as hereinbefore described in Example 1(A), are shown the following Table 18.

[1] = formula (IA) compounds, Table 17
[2] = formula (IB) compounds, Table 18

T1 sequence (Q15722 whole entry): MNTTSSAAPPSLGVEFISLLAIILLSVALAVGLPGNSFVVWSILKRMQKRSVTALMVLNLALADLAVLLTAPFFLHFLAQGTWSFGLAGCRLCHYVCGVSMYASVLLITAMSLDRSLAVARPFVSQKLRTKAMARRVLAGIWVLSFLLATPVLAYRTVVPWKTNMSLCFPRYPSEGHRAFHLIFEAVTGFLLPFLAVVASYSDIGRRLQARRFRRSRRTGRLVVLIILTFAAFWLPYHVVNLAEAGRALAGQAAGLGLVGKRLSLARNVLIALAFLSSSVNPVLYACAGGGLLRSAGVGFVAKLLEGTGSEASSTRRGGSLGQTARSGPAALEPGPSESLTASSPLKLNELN

inhibition [1]	inhibition [2]	SMILES
83.5%	–	C=CCN(CCCC(=O)O)C(=O)/C(C)=C/c1ccc(C(=O)Oc2ccc(C(=N)N)cc2)cc1 [Compound 20]
–	94.1%	C=CCN(CC=C)C(=O)CN(CC=C)C(=O)/C(C)=C/c1ccc(C(=O)Oc2ccc(C(=N)N)cc2)cc1 [Example 2(x)]
61.2%	–	COCCCN(C(=O)/C(C)=C/c1ccc(C(=O)Oc2ccc(C(=N)N)cc2)cc1)C(C(=O)O)C(=O)O [Compound 24]
–	82.4%	COc1cc(C(=N)N)ccc1OC(=O)c1ccc(C(=O)N(CCCc2ccccc2)C(Cc2ccccc2)Cc2ccccc2)cc1 [Example 2(ff)]
–	67.6%	C=CCN(CC(=O)OCCN(C)C)C(=O)/C(C)=C/c1ccc(C(=O)Oc2ccc(C(=N)N)cc2)cc1 [Example 2(u)]
–	50.8%	C/C(=C\c1ccc(C(=O)Oc2ccc(C(=N)N)cc2)cc1)C(=O)N(CC(=O)O)CC1CCNCC1 [Example 2(dd)]
–	92.8%	CCOC(=O)CCN(CCC(C)C)C(=O)/C(C)=C/c1ccc(C(=O)Oc2ccc(C(=N)N)cc2)cc1 [Example 2(z)]

Second part, the compound before the results:

SMILES	inhibition [1]	inhibition [2]
CCOC(=O)CC[C@H](NC(=O)/C=C(\C)c1ccc(C(=O)Oc2ccc(C(=N)N)cc2)cc1)C(=O)OCC [Compound 4]	63.7%	–
C/C(=C\c1ccc(C(=O)Oc2ccc(C(=N)N)cc2)cc1)C(=O)N(CC(=O)O)CC1CCCO1 (stereo not drawn) [Example 2(cc)]	–	76.7%
C=CCN(CCCC(=O)OCC)C(=O)/C(C)=C/c1ccc(C(=O)Oc2ccc(C(=N)N)cc2)cc1 [Compound 14]	96.5%	–
CCOC(=O)CN(C(=O)/C(C)=C/c1ccc(C(=O)Oc2ccc(C(=N)N)cc2)cc1)[C@@H](CC(C)C)C(=O)OCC [Example 2(y)]	–	85.5%
CCOC(=O)CCN(CC(=O)OCC)C(=O)/C(C)=C/c1ccc(C(=O)Oc2ccc(C(=N)N)cc2)cc1 [Compound 18]	87%	–
CCOC(=O)c1cc2ccccc2n1Cc1ccc(C(=O)Oc2ccc(C(=N)N)cc2)cc1 [Example 5(b)]	–	90.2%
C/C(=C\c1ccc(C(=O)Oc2ccc(C(=N)N)cc2)cc1)C(=O)N(CC(=O)O)Cc1ccccc1 [Compound 21]	90.8%	–
C/C(=C\c1ccc(C(=O)Oc2ccc(C(=N)N)cc2)cc1)C(=O)N(CCC(=O)O)C1CCCCC1 [Example 2(aa)]	–	94.4%
C=CCN(CC(=O)O)C(=O)/C(C)=C/c1ccc(C(=O)Nc2ccc(C(=N)N)cc2)cc1 [Example 2(ee)]	–	65.3%
CCOC(=O)CN(CCOC)C(=O)/C(C)=C/c1ccc(C(=O)Oc2ccc(C(=N)N)cc2)cc1 [Example 2(bb)]	–	87.3%
C=CCN(CC(=O)OCC)C(=O)/C(C)=C/c1ccc(C(=O)Oc2ccc(C(=N)N)cc2)cc1 [Compound 1]	91.5%	–
C=CCN(CC(=O)NCCN(C)C)C(=O)/C(C)=C/c1ccc(C(=O)Oc2ccc(C(=N)N)cc2)cc1 [Example 2(t)]	–	51.5%
C=CCN(CC(=O)NC(C(=O)OCC)C(=O)OCC)C(=O)/C(C)=C/c1ccc(C(=O)Oc2ccc(C(=N)N)cc2)cc1 [Example 2(w)]	–	76.7%
C=CCN(CC(=O)Oc1ccc(C(=N)N)cc1)C(=O)/C(C)=C/c1ccc(C(=O)Oc2ccc(C(=N)N)cc2)cc1 [Example 2(v)]	–	92%
